Experimental data from US9643974B2, “Amino-substituted imidazopyridazines” (Bayer Intellectual Property GmbH, priority 2011, dated 2017).
Structures can show the parent of a compound that is named as a salt.

Legend:
[1] = target: T1, human full-lengt MKNK1 (Homo sapiens, UniProt Q9BUB5, T385D); assay: MKNK1 kinase assay (MKNK1 TR-FRET assay); format: biochemical; details: ATP final conc. 10 μM, 15 min preincubation, 45 min reaction at 22° C.
T1 construct: purchased Carna Biosciences 02-145; host or cells: insect cells (baculovirus expression system)
T1 sequence (Q9BUB5 1-424 isoform Q9BUB5-2 T344D): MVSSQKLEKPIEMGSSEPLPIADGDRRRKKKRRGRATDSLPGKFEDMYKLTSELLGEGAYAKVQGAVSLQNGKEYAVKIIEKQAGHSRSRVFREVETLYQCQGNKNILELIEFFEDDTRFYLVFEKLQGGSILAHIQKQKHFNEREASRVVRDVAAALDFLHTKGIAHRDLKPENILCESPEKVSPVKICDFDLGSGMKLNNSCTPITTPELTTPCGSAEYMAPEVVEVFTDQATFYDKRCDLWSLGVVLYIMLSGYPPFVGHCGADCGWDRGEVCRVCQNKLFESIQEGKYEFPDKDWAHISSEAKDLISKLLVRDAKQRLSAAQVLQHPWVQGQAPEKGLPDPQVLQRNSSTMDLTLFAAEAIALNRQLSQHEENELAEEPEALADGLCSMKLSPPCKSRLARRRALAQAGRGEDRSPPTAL
Excerpt: MKNK1-inhibitory activity of compounds of the present invention was quantified employing the MKNK1 TR-FRET assay as described in the following paragraphs.
(§1) A recombinant fusion protein of Glutathione-S-Transferase (GST, N-terminally) and human full-lengt MKNK1 (amino acids 1-424 and T344D of accession number BAA 19885.1), expressed in insect cells using baculovirus expression system and purified via glutathione sepharose affinity chromatography, was purchased from Carna Biosciences (product no 02-145) and used as enzyme. As substrate for the kinase reaction the biotinylated peptide biotin-Ahx-IKKRKLTRRKSLKG (C-terminus in amide form) was used which can be purchased e.g. form the company Biosyntan (Berlin-Buch, Germany).
(§2) For the assay 50 nL of a 100 fold concentrated solution of the test compound in DMSO was pipetted into a black low volume 384 well microtiter plate (Greiner Bio-One, Frickenhausen, Germany), 2 μL of a solution of MKNK1 in aqueous assay buffer [50 mM HEPES pH 7.5, 5 mM magnesium chloride, 1.0 mM dithiothreitol, 0.005% (v/v) Nonidet-P40 (Sigma)] was added and the mixture was incubated for 15 min at 22° C. to allow pre-binding of the test compounds to the enzyme before the start of the kinase reaction. Then the kinase reaction was started by the addition of 3 μL of a solution of adenosine-tri-phosphate (ATP, 16.7 μM=>final conc. in the 5 μL assay volume is 10 μM) and substrate (0.1 μM=>final conc. in the 5 μL assay volume is 0.06 μM) in assay buffer and the resulting mixture was incubated for a reaction time of 45 min at 22° C. The concentration of MKNK1 was adjusted depending of the activity of the enzyme lot and was chosen appropriate to have the assay in the linear range, typical concentrations were in the range of 0.05 μg/ml. The reaction was stopped by the addition of 5 μL of a solution of TR-FRET detection reagents (5 nM streptavidine-XL665 [Cisbio Bioassays, Codolet, France] and 1 nM anti-ribosomal protein S6 (pSer236)-antibody from Invitrogen [#44921G] and 1 nM LANCE EU-W1024 labeled ProteinG [Perkin-Elmer, product no. AD0071]) in an aqueous EDTA-solution (100 mM EDTA, 0.1% (w/v) bovine serum albumin in 50 mM HEPES pH 7.5).
The resulting mixture was incubated for 1 h at 22° C. to allow the formation of complex between the phosphorylated biotinylated peptide and the detection reagents. Subsequently the amount of phosphorylated substrate was evaluated by measurement of the resonance energy transfer from the Eu-chelate to the streptavidine-XL. Therefore, the fluorescence emissions at 620 nm and 665 nm after excitation at 350 nm were measured in a TR-FRET reader, e.g. a Rubystar (BMG Labtechnologies, Offenburg, Germany) or a Viewlux (Perkin-Elmer). The ratio of the emissions at 665 nm and at […] was taken as the measure for the amount of phosphorylated substrate. The data were normalised (enzyme reaction without inhibitor=0% inhibition, all other assay components but no enzyme=100% inhibition). Usually the test compounds were tested on the same microtiterplate in 11 different concentrations in the range of 20 μM to 0.1 nM (20 μM, 5.9 μM, 1.7 μM, 0.51 μM, 0.15 μM, 44 nM, 13 nM, 3.8 nM, 1.1 nM, 0.33 nM and 0.1 nM, the dilution series prepared separately before the assay on the level of the 100 fold concentrated solutions in DMSO by serial 1:3.4 dilutions) in duplicate values for each concentration and […] were calculated by a 4 parameter fit.

[2] = target: T2, human full-length MKNK1 (Homo sapiens, UniProt Q9BUB5, T385D); assay: MKNK1 kinase high ATP assay (TR-FRET-based); format: biochemical; details: ATP final conc. 2 mM, 15 min preincubation, 30 min reaction at 22° C.
T2 construct: purchased Carna Biosciences 02-145; host or cells: insect cells (baculovirus expression system)
T2 sequence (Q9BUB5 1-424 isoform Q9BUB5-2 T344D): as above
Procedure: MKNK1 Kinase High ATP Assay
MKNK1-inhibitory activity at high ATP of compounds of the present invention after their preincubation with MKNK1 was quantified employing the TR-FRET-based MKNK1 high ATP assay as described in the following paragraphs.
as §1, with “human full-length” for “human full-lengt”, “was used,” for “was used”, “e.g. from” for “e.g. form”
as §2, with “3.3 mM=>final” for “16.7 μM=>final”, “2 mM)” for “10 μM)”, “30” for “45”, “0.003 μg/mL.” for “0.05 μg/ml.”
The resulting mixture was incubated for 1 h at 22° C. to allow the formation of complex between the phosphorylated biotinylated peptide and the detection reagents. Subsequently the amount of phosphorylated substrate was evaluated by measurement of the resonance energy transfer from the Eu-chelate to the streptavidine-XL. Therefore, the fluorescence emissions at 620 nm and 665 nm after excitation at 350 nm were measured in a TR-FRET reader, e.g. a Rubystar (BMG Labtechnologies, Offenburg, Germany) or a Viewlux (Perkin-Elmer). The ratio of the emissions at 665 nm and at […] was taken as the measure for the amount of phosphorylated substrate. The data were normalised (enzyme reaction without inhibitor=0% inhibition, all other assay components but no enzyme=100% inhibition).

IC50 [1] [nM]	IC50 [2] [nM]	Compound
17	53	N[C@H](COc1ccc2ncc(-c3cc4cnccc4o3)n2n1)c1ccccc1 [Example 1, (1S)-2-{[3-(Furo[3,2-c]pyridin-2-yl)imidazo[1,2-b]pyridazin-6-yl]oxy}-1-phenylethanamine]
3	5	COc1nccc2oc(-c3cnc4ccc(O[C@H]5C[C@H](N)C5)nn34)cc12 [Example 2, trans-3-{[3-(4-Methoxyfuro[3,2-c]pyridin-2-yl)imidazo[1,2-b]pyridazin-6-yl]-oxy}cyclobutanamine]
11	27	COc1nccc2oc(-c3cnc4ccc(OC[C@@H](C)N)nn34)cc12 [Example 3, (2R)-1-{[3-(4-Methoxyfuro[3,2-c]pyridin-2-yl)imidazo[1,2-b]pyridazin-6-yl]-oxy}propan-2-amine]
20	91	COc1nccc2oc(-c3cnc4ccc(OC[C@@H](N)c5ccccc5)nn34)cc12 [Example 4, (1S)-2-{[3-(4-Methoxyfuro[3,2-c]pyridin-2-yl)imidazo[1,2-b]pyridazin-6-yl]oxy}-1-phenylethanamine]
21	65	COc1nccc2oc(-c3cnc4ccc(OC[C@H](C)N)nn34)cc12 [Example 5, (2S)-1-{[3-(4-Methoxyfuro[3,2-c]pyridin-2-yl)imidazo[1,2-b]pyridazin-6-yl]-oxy}propan-2-amine]
23	37	COc1nccc2oc(-c3cnc4ccc(O[C@H](C)CN)nn34)cc12 [Example 6, (2R)-2-{[3-(4-Methoxyfuro[3,2-c]pyridin-2-yl)imidazo[1,2-b]pyridazin-6-yl]-oxy}propan-1-amine]
25	91	N[C@@H](COc1ccc2ncc(-c3cc4cnccc4o3)n2n1)c1ccccc1 [Example 7, (1R)-2-{[3-(Furo[3,2-c]pyridin-2-yl)imidazo[1,2-b]pyridazin-6-yl]oxy}-1-phenylethanamine]
28	136	C[C@H](CN)Oc1ccc2ncc(-c3cc4cnccc4o3)n2n1 [Example 8, (2R)-2-{[3-(Furo[3,2-c]pyridin-2-yl)imidazo[1,2-b]pyridazin-6-yl]oxy}propan-1-amine]
48	94	COc1nccc2oc(-c3cnc4ccc(OC[C@H](N)c5ccccc5)nn34)cc12 [Example 9, (1R)-2-{[3-(4-Methoxyfuro[3,2-c]pyridin-2-yl)imidazo[1,2-b]pyridazin-6-yl]oxy}-1-phenylethanamine]
34	62	COc1nccc2oc(-c3cnc4ccc(OC[C@@H](N)[C@@H](C)OCc5ccccc5)nn34)cc12 [Example 10, (2R,3R)-3-(Benzyloxy)-1-{[3-(4-methoxyfuro[3,2-c]pyridin-2-yl)imidazo[1,2-b]-pyridazin-6-yl]oxy}butan-2-amine]
17	59	COc1nccc2oc(-c3cnc4ccc(OC[C@H](N)COCc5ccccc5)nn34)cc12 [Example 11, (2R)-1-(Benzyloxy)-3-{[3-(4-methoxyfuro[3,2-c]pyridin-2-yl)imidazo[1,2-b]-pyridazin-6-yl]oxy}propan-2-amine]
26	65	C[C@H](N)COc1ccc2ncc(-c3cc4ccncc4o3)n2n1 [Example 12, (2S)-1-{[3-(Furo[2,3-c]pyridin-2-yl)imidazo[1,2-b]pyridazin-6-yl]oxy}propan-2-amine]
5	16	N[C@H]1C[C@H](Oc2ccc3ncc(-c4cc5ccncc5o4)n3n2)C1 [Example 13, trans-3-{[3-(Furo[2,3-c]pyridin-2-yl)imidazo[1,2-b]pyridazin-6-yl]oxy}-cyclobutanamine salt with formic acid]
5	34	N[C@H]1C[C@H](Oc2ccc3ncc(-c4cc5cnccc5o4)n3n2)C1 [Example 14, trans-3-{[3-(Furo[3,2-c]pyridin-2-yl)imidazo[1,2-b]pyridazin-6-yl]oxy}cyclobutanamine salt with formic acid]
12	31	COc1nccc2oc(-c3cnc4ccc(OC[C@H](N)CO)nn34)cc12 [Example 15, (2R)-2-Amino-3-{[3-(4-methoxyfuro[3,2-c]pyridin-2-yl)imidazo[1,2-b]pyridazin-6-yl]oxy}propan-1-C1]
8	19	COc1nccc2oc(-c3cnc4ccc(OCC(C)CN)nn34)cc12 (stereo not drawn) [Example 16, 3-{[3-(4-Methoxyfuro[3,2-c]pyridin-2-yl)imidazo[1,2-b]pyridazin-6-yl]oxy}-2-methylpropan-1-amine]
67	127	C[C@@H](N)COc1ccc2ncc(-c3cc4ncccc4o3)n2n1 [Example 17, (2R)-{[3-(Furo[3,2-b]pyridin-2-yl)imidazo[1,2-b]pyridazin-6-yl]oxy}propan-2-amine]
	19	C[C@H](N)COc1ccc2ncc(-c3cc4c(OC5CCC5)nccc4o3)n2n1 [Example 41, (2S)-1-({3-[4-(Cyclobutyloxy)furo[3,2-c]pyridin-2-yl]imidazo[1,2-b]pyridazin-6-yl}oxy)propan-2-amine]
	26	C[C@@H](N)COc1ccc2ncc(-c3cc4c(OC5CCC5)nccc4o3)n2n1 [Example 42, (2R)-1-({3-[4-(Cyclobutyloxy)furo[3,2-c]pyridin-2-yl]imidazo[1,2-b]pyridazin-6-yl}oxy)propan-2-amine]
